The values that follow come from patent publication US20090196829A1, “MRI CONTRAST AGENTS AND RELATED METHODS OF USE” (Northwestern University, priority 2008, published 2009).

Where “and” joins values, the source holds several entries; their conditions need not be identical. Equal entries are not always repeated.

The conditions of data set [1]: at 64 MHz; cited from earlier work.
Data set [2] can be described thus: T1 measurement and relaxivity of agents in solution, MR phantoms at 4.7T, 200 MHz. It is filed as physicochemical. The note with it: nanopure water, per Gd. The protocol: In experiments conducted during the course of development of the present invention, MR phantoms were imaged using a 4.7T, 200 MHz Bruker Biospec MR Imager with decreasing concentrations of 5, 6 and Gd-DOTA as indicated in FIG. 2A. T1 measurements were obtained and relaxivities were calculated for each compound using the T1 data. Relaxivities for 5, 6 and Gd-DOTA were calculated to be 5.3, 5.1, and 1.0 mM^−1 s^−1 at 200 MHz respectively. At high magnetic field strengths there remained a 5 fold increase in relaxivity per Gd(III) which indicated a 31-37 fold increase in molecular relaxivity.
6, 5 and DOTA-Gd were dissolved in nanopure water at decreasing concentrations and imaged in 1 mm capillary tubes. Concentrations (μM) were as follows from left to right for 6 (73.3, 54.9, 36.6, 22.0, 11.0, 0.0) for 5 (82.1, 61.6, 41.0, 24.6, 12.3, 0.0) and for DOTA-Gd (82.7, 62.0, 41.4, 24.8, 12.4, 0.0). T1 weighted (TR/TE=300/18.3 ms) spin-echo images were acquired at 200 MHz. […]
T1 values were determined using the following equation.
Where SI is the measured signal intensity for each TR, S0 is the signal intensity at infinity.
Relaxivities for each compound were calculated using the T1 data and gadolinium concentrations as determined by ICP-MS analysis. […]

In another data set the test system is NIH-3T3 cells. The experiment in a line: T1 measurement from T1 weighted cell pellet images of labeled cells. It is filed as cell-based, mouse. The settings on record: NIH-3T3 cell pellets, 4 hours incubation. The protocol: In experiments conducted during the course of development of the present invention, 5 and 6 were used to label cells for MR imaging at equal molar concentrations of Gd(III) (FIG. 2B). […] NIH-3T3 cells were incubated for 4 hours at 37° C. and 5% CO2 in complete media containing 5, 6, and Gd-DOTA. The cells were rinsed 3 times in phosphate buffered saline and pelleted in 1 mm capillary tubes. Unlabeled cell pellets were used as a control. T1 values measured for 5, 6, Gd-DOTA and the control cell pellet were 2067.7, 2178.4, 3009.4, and 3480.3 msec respectively. […] Cell studies were done using NIH-3T3 cells cultured in Dulbecco's Modified Eagle's Media supplemented in 10% calf bovine serum and incubated at 37° C., 5% CO2. Cells were incubated with approximately equimolar concentrations of Gd for 4 hours in a 6 well plate. The cells were rinsed 2× with PBS and trypsinized. In 1.5 mL tubes, the cells were fixed for 15 min in 10% buffered neutral formalin and rinsed 2× in PBS. The cells were then pelleted in flame sealed 1 mm capillary tubes. T1 weighted (TR/TE=800/18.3 ms) spin-echo images were acquired at 200 MHz. T1 measurements were obtained by collecting a series of images using a standard spin-echo sequence with a TE of […] and a series of TR (91.5, 200, 300, 400, 500, 750, 1200, 2500, 5000, 10000), 6 signal averages, FOV 2×2 cm, collected into a matrix of 256×128.

Consider `CNC[C@H](O)[C@@H](O)[C@H](O)[C@H](O)CO.O=C([O-])CN1CCN(CC(=O)[O-])CCN(CC(=O)O)CCN(CC(=O)[O-])CC1.[Gd+3]` [Dotarem], for which the relaxivity in data set [1] is 3.4 mM⁻¹ s⁻¹.

For the molecule `O=C([O-])CN1CCN(CC(=O)[O-])CCN(CC(=O)O)CCN(CC(=O)[O-])CC1.[Gd+3]` [Gd-DOTA], in data set [2], the “Relaxivity (linear regression of 1/T1 vs. Gd concentration)” value is 1.0 mM⁻¹ s⁻¹. The T1 in the data set on NIH-3T3 cells (approximately equimolar Gd(III) (7.80, 8.95, 9.00 mM Gd), 200 MHz) was 3009.4 ms and 3009.44 ms. Further, the “% difference from control (T1)” value in the data set with NIH-3T3 cells (vs unlabeled control pellet) turned out to be 13.53%.
